We go through one substance from patent US20240165226A1, “COMBINATION TREATMENT OF CD38-EXPRESSING TUMORS” (GENMAB A/S, priority 2006, published 2024).

For this experiment, the system named is Daudi-luc tumor cells. Put plainly: In vivo SCID-luciferase experiments. Set-up: species or system SCID mice. The text has this:
In this model tumor cells are transfected with firefly luciferase. Upon administration of luciferin (Molecular Probes, Leiden, The Netherlands) to the mice the labeled cells can be detected in vivo by bioluminescent imaging using a highly sensitive CCD camera, cf. Wetterwald et al., American Journal of Pathology 160(3), 1143-1153 (2002).
Daudi cells were transfected with gWIZ luciferase from Gene Therapy Systems (San Diego, CA) and cultured in RPMI with 10% FCS, Pen/Strep, Sodium Pyruvate and 1 μg/ml puromycin (Sigma). Cells were analysed for luciferase expression (expressed in RLU/1×10^5 cells) in a luminometer and for CD38 expression by FACS. 2.5×10^6 luciferase-transfected Daudi cells/mouse were injected i.v. into SCID mice. Mice were treated with -003, -005, isotype control antibody (HuMab-KLH) or rituximab (anti-CD20 antibody). Antibodies were injected intraperitoneally. Four treatment settings were used (see Table 4). In the preventive setting, antibody (100 μg/mouse) and cells were administered simultaneously. In therapeutic setting I, antibody (300 μg/mouse) was administered 7 days after administration of cells. In therapeutic setting II, antibody (10 μg/mouse) was administered 14 days after administration of cells. In therapeutic setting III, antibody (100 μg/mouse) was administered 7 days after administration of cells. For imaging, mice were anesthetized by i.p. injection of a mixture of ketamine/xylazine/atropine. Synthetic D-Luciferin (sodium salt, Molecular Probes) was given i.p. at a dose of 25 mg/ml. Mice were then placed in a light tight box and after 3 min, imaging was started using a VersArray 1300B liquid nitrogen cooled CCD detector (Roper Scientific). Photons emitted from the luciferase were counted over an exposure period of 5 min. Under illumination black and white images were made for reference. MetaVue software (Universal Imaging Corp) was used for data collection and image analysis. Statistical significance of differences between groups was established using one-way analysis of variance with a Newman-Keuls post test using GraphPad PRISM version 3.02 (Graphpad Software Inc).

As to “rituximab [anti-CD20 antibody, reference compound]”, the “inhibition of growth of tumor cells” value (preventive setting, 100 μg/mouse, day 0, i.p.) is “inhibition observed” and the “inhibition of growth of tumor cells” value (therapeutic setting I, 300 μg/mouse, day 7, i.p.) was “inhibition observed”.
